Experimental data as given in patent publication US20250000873A1, “INHALED ILOPROST FOR RESCUE TREATMENT AND TREATMENT AS NEEDED IN PULMONARY HYPERTENSION” (JUSTUS-LIEBIG-UNIVERSITAET GIESSEN, priority 2021, published 2025).
“Also recorded” adds a separate entry of the source.

Columns and labels:
[1] = tested on: patients with pulmonary arterial hypertension; assay: Clinical pilot study of iloprost PRN, hemodynamics by intracardiac catheter and tolerability; assay type: in vivo, human
Experimental: A clinical pilot study to evaluate the feasibility of iloprost PRN was conducted with 4 patients. Eligible were male and female patients with pulmonary arterial hypertension in the age from 18 to 70 years having a mean pulmonary arterial blood pressure (PAP) higher than 25 mm Hg, a pulmonary vascular resistance (PVR) higher than 240 dyn*s*cm−5, a central venous pressure (CVP) higher than 3 mm Hg, and a pulmonary capillary wedge pressure (PCWP) lower than 12 mm Hg. Patients were therapy-naïve, or were receiving PH-specific medication (endothelin receptor antagonists, phosphodiesterase type 5 inhibitors, prostacyclin analogues) alone or in combination. Patients were monitored by ECG, pulse oxymetry, and non-invasive blood pressure measurement. An intracardiac catheter was introduced into the distal pulmonary artery to measure PAP, CVP, PCWP, and cardiac output. Also measured were the heart rate, systemic arterial pressure (SAP), systemic vascular resistance (SVR), central arterial and venous blood gases. After the initial determination of all parameters the reactivity of the pulmonary vasculature to oxygen (2 to 4 L/min) and nitric oxide (20 ppm) was tested. Subsequently, patients inhaled a single dose of 2.5 μg of nebulized iloprost in two breaths, using a prototype of a soft mist inhaler filled with iloprost in a concentration of 50 μg/ml. Hemodynamic parameters and clinical condition of the patients were assessed before and 1, 5, 15 and 30 minutes after inhalation. In the absence of adverse effects, a second inhalation maneuver with 4 breaths corresponding to a dose 5 μg iloprost was performed, again followed by an observation period of at least 30 minutes.

[2] = tested on: hemodynamic parameters of pulmonary circulation; conditions: conventional nebulizers, administered over 10 minutes; cited from earlier work

CC#CCC(C)[C@H](O)/C=C/[C@@H]1[C@H]2C/C(=C/CCCC(=O)O)C[C@H]2C[C@H]1O (stereo partly drawn) [iloprost, 5-{(E)-(1S,5S,6R,7R)-7-hydroxy-6[(E)-(3S,4RS)-3-hydroxy-4-methyl-1-octen-6-inyl]-bicyclo[3.3.0]octan-3-ylidene}pentanoic acid]
Tolerability of the treatment ([1]; inhaled 2.5 μg (2 breaths) then 5 μg (4 breaths), prototype soft mist inhaler, iloprost 50 μg/ml, 4 patients): all patients tolerated the treatment well | Systemic side effects (SAP and SVR changes) ([1]; inhaled 2.5 μg or 5 μg, soft mist inhaler prototype, n=4): without significant systemic side effects | Onset of therapeutic pulmonary vascular effects (PAP and PVR changes) ([1]; rapid inhalation of 2.5 μg or 5 μg (2 or 4 puffs à 1.25 μg), soft mist inhaler prototype, n=4): already seen within only one minute after rapid iloprost inhalation; also recorded: already registered one minute after finishing the inhalation maneuver | Time of maximum therapeutic effects on hemodynamic parameters of pulmonary circulation after end of inhalation [2]: approximately 5 minutes
